Laboratory results: ChEMBL document CHEMBL4371024, “Synthesis and characterization of pyridoxine, nicotine and nicotinamide salts of dithiophosphoric acids as antibacterial agents against resistant wound infection” (Bioorg Med Chem, 2019)
Converted amounts (≈) assume the structure as drawn. The source made the active and inactive calls. No cut-off for these calls is given here.

How the values were obtained:
Staphylococcus aureus [1] = test: Antibacterial activity against Staphylococcus aureus ATCC 29213 after 24 hrs by broth dilution method; format: functional; details: ATCC 29213, 24 h
[2] = test system: Staphylococcus epidermidis; test: Antibacterial activity against Staphylococcus epidermidis after 24 hrs by broth dilution method; format: functional
Erythrocyte = test: Hemolytic activity in human erythrocytes at 1 mM; format: ADME, cell-based; details: 1000 µM
Pseudomonas aeruginosa [3] = test: Antibacterial activity against Pseudomonas aeruginosa ATCC 27853 after 24 hrs by broth dilution method; format: functional; details: ATCC 27853, 24 h
Klebsiella pneumoniae = test: Antibacterial activity against Klebsiella pneumoniae after 24 hrs by broth dilution method; format: functional
Staphylococcus aureus [4] = test: Inhibition of extracellular component secretion and matrix formation in Staphylococcus aureus assessed as induction of morphological changes at 1 uM by scanning electron microscopy; format: functional, organism-based
Pseudomonas aeruginosa [5] = test: Inhibition of extracellular component secretion and matrix formation in Pseudomonas aeruginosa assessed as inhibition of polysaccharide matrix formation at 1 uM by scanning electron microscopy; format: functional, organism-based
Staphylococcus aureus [6] = test: Inhibition of extracellular component secretion and matrix formation in Staphylococcus aureus assessed as inhibition of polysaccharide matrix formation at 1 uM by scanning electron microscopy; format: functional, organism-based
Pseudomonas aeruginosa [7] = test: Inhibition of extracellular component secretion and matrix formation in Pseudomonas aeruginosa assessed as induction of morphological changes at 1 uM by scanning electron microscopy; format: functional, organism-based

Row | SMILES | MIC (Staphylococcus aureus [1]) | MIC [2] | Activity (Erythrocyte) | MIC (Pseudomonas aeruginosa [3]) | MIC (Klebsiella pneumoniae) | Activity (Staphylococcus aureus [4]) | Activity (Pseudomonas aeruginosa [5]) | Activity (Staphylococcus aureus [6]) | Activity (Pseudomonas aeruginosa [7])
1 | CC(C)[C@@H]1CC[C@@H](C)C[C@H]1OP(=S)(S)O[C@@H]1C[C@H](C)CC[C@H]1C(C)C | 190 µM (≈ 77.3 µg/mL) | 380 µM (≈ 155 µg/mL) | Toxic | 380 µM (≈ 155 µg/mL) | 1540 µM (≈ 626 µg/mL) | – | – | – | –
2 | Cc1ccc(C(C)C)c(OP(=S)(S)Oc2cc(C)ccc2C(C)C)c1.NC(=O)c1cccnc1 | 380 µM | 380 µM | – | 380 µM | 1500 µM | – | – | – | –
3 | CCCCOP(=S)(S)OCCCC.NC(=O)c1cccnc1 | 4130 µM | 4130 µM | – | 4130 µM | 4130 µM | – | – | – | –
4 | Cc1ccc(C(C)C)c(OP(=S)(S)Oc2cc(C)ccc2C(C)C)c1 | 3800 µM (≈ 1500 µg/mL) | 3800 µM (≈ 1500 µg/mL) | – | 3800 µM (≈ 1500 µg/mL) | 3800 µM (≈ 1500 µg/mL) | – | – | – | –
5 | CC(C)[C@H]1CC[C@H](C)C[C@@H]1OP(=S)(S)O[C@H]1C[C@@H](C)CC[C@@H]1C(C)C.CN1CCC[C@H]1c1cccnc1 | 20 µM | 20 µM | – | 320 µM | 320 µM | – | – | – | –
6 | C[C@@H]1[C@@H](OP(=S)(S)O[C@H]2C[C@H]3C[C@@H]([C@@H]2C)C3(C)C)C[C@H]2C[C@@H]1C2(C)C | 390 µM (≈ 157 µg/mL) | 190 µM (≈ 76.5 µg/mL) | – | 1560 µM (≈ 628 µg/mL) | 3110 µM (≈ 1250 µg/mL) | – | – | – | –
7 | CC1(C)[C@H]2CC[C@](C)(C2)[C@H]1OP(=S)(S)O[C@H]1C(C)(C)[C@H]2CC[C@]1(C)C2.Cc1ncc(CO)c(CO)c1O | 20 µM | 20 µM | – | 320 µM | 320 µM | – | – | – | –
8 | Cc1ccc(C(C)C)c(OP(=S)(S)Oc2cc(C)ccc2C(C)C)c1.Cc1ncc(CO)c(CO)c1O | 530 µM | 530 µM | – | 530 µM | 530 µM | – | – | – | –
9 | CC(C)[C@@H]1CC[C@@H](C)C[C@H]1OP(=S)(S)O[C@@H]1C[C@H](C)CC[C@H]1C(C)C.CN1CCC[C@H]1c1cccnc1 | – | – | – | – | – | Active | Active | Active | Active
10 | CC1(C)[C@H]2CC[C@]1(C)[C@H](OP(=S)(S)O[C@@H]1C[C@@H]3CC[C@@]1(C)C3(C)C)C2.CN1CCC[C@H]1c1cccnc1 | 20 µM | 20 µM | – | 320 µM | 320 µM | – | – | – | –
11 | CN[C@H](CC(C)C)C(=O)N[C@H]1C(=O)N[C@@H](CC(N)=O)C(=O)N[C@H]2C(=O)N[C@H]3C(=O)N[C@H](C(=O)N[C@H](C(=O)O)c4cc(O)cc(O)c4-c4cc3ccc4O)[C@H](O)c3ccc(c(Cl)c3)Oc3cc2cc(c3O[C@@H]2O[C@H](CO)[C@@H](O)[C@H](O)[C@H]2O[C@H]2C[C@](C)(N)[C@H](O)[C@H](C)O2)Oc2ccc(cc2Cl)[C@H]1O [VANCOMYCIN] | 1.4 µM (≈ 2.03 µg/mL) | 0.7 µM (≈ 1.01 µg/mL) | – | > 5000 µM | > 5000 µM | – | – | – | –
